# Calls of active or inactive are those of the source.
# What was measured:
# [1] = molecular target: DNA dC->dU-editing enzyme APOBEC-3A (Homo sapiens, UniProt P31941); test: A3A deaminase inhibition for selectivity – biochemical, dose response (AID 504722); type: functional
# [2] = molecular target: Eukaryotic translation initiation factor 4E (Mus musculus, UniProt P63073); test: blockers of eIF4G binding by eIF4E – biochemical, TR-FRET, dose response (AID 855); type: functional;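 note: potency for disrupting eIF4E binding to eIF4GI seen as loss of FRET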
# [3] = molecular target: DNA dC->dU-editing enzyme APOBEC-3G (Homo sapiens, UniProt Q9HC16); test: Dose Response confirmation of small molecule APOBEC3G DNA Deaminase Inhibitors via a fluorescence-based single-stranded DNA deaminase assay. [Related pubchem assays (depositor defined):AID493012, AID493028]; type: functional
# [4] = molecular target: T1, Rac GTPase-activating protein 1 (Homo sapiens, UniProt Q9H0H5); test: blockers of MgcRacGAP-driven Rac1 GTP hydrolysis – biochemical, ADP Hunter fluorescence, primary and confirmatory, confirmation (AID 624330); type: functional
# T1 sequence (Q9H0H5 whole entry): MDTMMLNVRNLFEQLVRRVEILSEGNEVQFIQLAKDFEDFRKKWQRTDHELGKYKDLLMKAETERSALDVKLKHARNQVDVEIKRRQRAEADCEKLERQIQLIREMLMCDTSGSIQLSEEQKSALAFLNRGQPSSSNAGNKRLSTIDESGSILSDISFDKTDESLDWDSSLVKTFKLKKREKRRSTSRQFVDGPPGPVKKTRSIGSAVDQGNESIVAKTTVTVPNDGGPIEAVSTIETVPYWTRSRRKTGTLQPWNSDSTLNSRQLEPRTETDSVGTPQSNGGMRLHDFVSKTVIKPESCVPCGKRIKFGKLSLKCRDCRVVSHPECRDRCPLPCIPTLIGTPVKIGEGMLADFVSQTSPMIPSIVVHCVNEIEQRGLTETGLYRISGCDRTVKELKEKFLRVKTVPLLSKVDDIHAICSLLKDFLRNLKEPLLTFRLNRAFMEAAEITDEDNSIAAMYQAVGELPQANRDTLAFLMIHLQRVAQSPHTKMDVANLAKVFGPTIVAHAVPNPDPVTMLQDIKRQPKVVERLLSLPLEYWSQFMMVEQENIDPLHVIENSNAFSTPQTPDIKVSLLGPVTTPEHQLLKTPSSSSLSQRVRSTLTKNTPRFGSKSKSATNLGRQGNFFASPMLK
# [5] = molecular target: T2, Coagulation factor XII (Homo sapiens, UniProt P00748); type: functional;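 note: activated factor XIIa alpha cleaving a fluorogenic AMC peptide substrate; inhibitor potency from loss of enzyme activity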
# T2 sequence (P00748 whole entry): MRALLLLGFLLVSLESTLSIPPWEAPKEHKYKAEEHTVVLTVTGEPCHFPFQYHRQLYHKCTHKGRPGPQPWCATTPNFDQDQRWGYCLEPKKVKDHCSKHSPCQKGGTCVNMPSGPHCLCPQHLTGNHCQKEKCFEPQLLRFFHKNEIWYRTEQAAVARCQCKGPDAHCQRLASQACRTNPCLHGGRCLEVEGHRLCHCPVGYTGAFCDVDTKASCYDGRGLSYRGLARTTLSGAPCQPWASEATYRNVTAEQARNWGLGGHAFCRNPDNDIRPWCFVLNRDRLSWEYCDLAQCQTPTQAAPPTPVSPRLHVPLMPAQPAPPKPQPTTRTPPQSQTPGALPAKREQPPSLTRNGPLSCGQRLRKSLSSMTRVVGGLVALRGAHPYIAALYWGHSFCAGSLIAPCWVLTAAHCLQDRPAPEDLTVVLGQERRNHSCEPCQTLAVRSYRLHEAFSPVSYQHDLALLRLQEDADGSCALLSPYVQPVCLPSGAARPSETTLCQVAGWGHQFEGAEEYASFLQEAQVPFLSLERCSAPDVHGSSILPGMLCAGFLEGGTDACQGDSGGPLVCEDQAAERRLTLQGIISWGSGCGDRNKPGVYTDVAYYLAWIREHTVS
# [6] = molecular target: Trypsin (Sus scrofa, UniProt P00761); test: trypsin protease activity blockade – biochemical, quenched peptide fluorescence, cherry-pick, selectivity assay for Rce1 protease inhibitor project, dose response (AID 488789)
# [7] = molecular target: T3, Bcl-2-like protein 10 (Homo sapiens, UniProt Q9HD36); test: Bcl-B/TR3 peptide binding disruption – biochemical, fluorescence polarization, FITC-TR3 peptide, selectivity assay for Bfl-1 inhibitor project, primary screen (AID 748);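 note: fluorescence polarization from a fluorescein-labelled TR3 peptide binding purified Bcl-B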
# T3 sequence (Q9HD36 whole entry): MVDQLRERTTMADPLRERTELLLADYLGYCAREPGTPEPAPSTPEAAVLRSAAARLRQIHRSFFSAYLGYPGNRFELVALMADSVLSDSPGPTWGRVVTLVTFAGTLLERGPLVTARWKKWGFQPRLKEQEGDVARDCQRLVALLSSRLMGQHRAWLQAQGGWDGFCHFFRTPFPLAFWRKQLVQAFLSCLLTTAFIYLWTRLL
# [8] = molecular target: T4, Estrogen receptor beta (Homo sapiens, UniProt Q92731);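 note: recombinant ER-beta bound to coactivator SRC1 peptide in presence of estradiol agonist; inhibitors block coactivator peptide binding and lower the FRET signal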
# [9] = molecular target: T4, Estrogen receptor beta; test: blockers of SRC-3 recruitment to ERβ – biochemical, ELISA, streptavidin-HRP readout, orthogonal assay, confirmation (AID 1060)
# [10] = molecular target: T5, Long-chain-fatty-acid--AMP ligase FadD28 (Mycobacterium tuberculosis, UniProt P9WQ59); test: Fluorescence polarization aasay to screen for inhibitors that compete for the binding of FadD28 to a bisubstrate Measured in Biochemical System Using Plate Reader - 2147-01_Inhibitor_Dose_CherryPick_Activity.; type: functional, Mycobacterium tuberculosis H37Rv
# T5 sequence (P9WQ59 whole entry): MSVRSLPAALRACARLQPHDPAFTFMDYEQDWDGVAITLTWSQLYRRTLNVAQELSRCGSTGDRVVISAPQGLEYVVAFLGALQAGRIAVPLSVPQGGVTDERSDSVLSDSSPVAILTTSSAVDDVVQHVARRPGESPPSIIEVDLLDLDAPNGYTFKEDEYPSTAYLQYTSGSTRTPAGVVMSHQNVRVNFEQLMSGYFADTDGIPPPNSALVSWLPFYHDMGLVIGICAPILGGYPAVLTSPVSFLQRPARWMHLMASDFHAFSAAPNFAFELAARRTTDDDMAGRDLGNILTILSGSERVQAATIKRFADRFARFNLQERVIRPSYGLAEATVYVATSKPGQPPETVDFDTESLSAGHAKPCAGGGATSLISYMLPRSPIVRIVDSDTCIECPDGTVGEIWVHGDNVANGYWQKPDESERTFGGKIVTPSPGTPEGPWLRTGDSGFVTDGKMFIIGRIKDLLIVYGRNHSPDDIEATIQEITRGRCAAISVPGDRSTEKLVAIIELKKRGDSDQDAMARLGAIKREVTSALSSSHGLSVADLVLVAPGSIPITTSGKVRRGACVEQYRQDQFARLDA
# [11] = molecular target: Nonstructural protein 1 (Influenza A virus, UniProt Q194T2); type: functional, Influenza A virus (A/California/07/2009(H1N1))
# [12] = molecular target: T6, Heat shock factor protein 1 (Mus musculus, UniProt P38532); test: enhancement of HSF1-driven luciferase signal – cell-based, NIH3T3, luminescence, dose retest, confirmation (AID 435004); type: functional;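 note: stress induced by proteasome inhibitor MG132 added 30 min after compound; luciferase reporter driven by HSF1 response element in NIH3T3 cells; actives raise luminescence as potentiators of the MG132 stress response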
# T6 sequence (P38532 whole entry): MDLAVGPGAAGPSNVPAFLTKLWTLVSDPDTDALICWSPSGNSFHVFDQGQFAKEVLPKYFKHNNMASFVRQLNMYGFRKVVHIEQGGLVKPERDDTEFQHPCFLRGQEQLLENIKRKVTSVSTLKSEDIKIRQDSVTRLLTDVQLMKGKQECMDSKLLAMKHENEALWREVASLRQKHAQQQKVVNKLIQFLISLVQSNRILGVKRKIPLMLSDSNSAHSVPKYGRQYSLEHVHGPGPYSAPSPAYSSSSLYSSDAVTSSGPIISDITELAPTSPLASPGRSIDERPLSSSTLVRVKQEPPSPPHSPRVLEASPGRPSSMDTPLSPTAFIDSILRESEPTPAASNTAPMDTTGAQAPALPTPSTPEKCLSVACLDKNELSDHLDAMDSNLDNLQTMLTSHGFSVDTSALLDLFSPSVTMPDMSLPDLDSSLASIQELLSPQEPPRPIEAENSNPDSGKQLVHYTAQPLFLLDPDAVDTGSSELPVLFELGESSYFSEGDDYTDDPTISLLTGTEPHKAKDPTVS
# [13] = molecular target: T7, Replicative DNA helicase DnaB (Mycobacterium tuberculosis, UniProt P9WMR3); test: DnaB intein splicing inhibitors, dose response, biochemical, cell-free fluorescence (AID 449749); type: functional
# T7 sequence (P9WMR3 whole entry): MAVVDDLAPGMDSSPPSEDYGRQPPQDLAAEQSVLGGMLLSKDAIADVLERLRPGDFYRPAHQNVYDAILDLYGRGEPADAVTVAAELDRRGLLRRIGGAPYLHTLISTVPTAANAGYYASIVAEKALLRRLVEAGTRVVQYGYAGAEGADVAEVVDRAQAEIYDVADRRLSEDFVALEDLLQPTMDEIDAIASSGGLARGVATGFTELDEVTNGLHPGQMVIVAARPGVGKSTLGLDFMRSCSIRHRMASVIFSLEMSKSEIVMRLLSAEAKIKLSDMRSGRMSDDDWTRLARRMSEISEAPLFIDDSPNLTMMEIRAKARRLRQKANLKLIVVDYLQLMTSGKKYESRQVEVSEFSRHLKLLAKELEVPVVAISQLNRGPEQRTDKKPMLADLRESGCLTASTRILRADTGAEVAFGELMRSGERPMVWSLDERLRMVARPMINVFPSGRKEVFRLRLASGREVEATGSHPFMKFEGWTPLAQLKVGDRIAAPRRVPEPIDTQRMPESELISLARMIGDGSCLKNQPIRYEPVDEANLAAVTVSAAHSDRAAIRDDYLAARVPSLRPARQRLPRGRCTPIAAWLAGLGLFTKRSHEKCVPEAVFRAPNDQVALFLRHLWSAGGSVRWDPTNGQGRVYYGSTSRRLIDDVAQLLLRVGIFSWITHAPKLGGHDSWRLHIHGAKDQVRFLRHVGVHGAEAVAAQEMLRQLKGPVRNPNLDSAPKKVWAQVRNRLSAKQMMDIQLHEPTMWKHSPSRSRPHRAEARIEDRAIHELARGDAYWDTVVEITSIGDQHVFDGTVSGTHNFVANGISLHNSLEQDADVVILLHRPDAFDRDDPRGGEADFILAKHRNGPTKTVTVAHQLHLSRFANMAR
# [14] = molecular target: T8, Protein RecA (Mycobacterium tuberculosis, UniProt P9WHJ3); test: Fluorescence Cell-Free Homogeneous Dose Retest to Identify Inhibitors of RecA-Intein Splicing Activity. [Related pubchem assays (depositor defined):AID2097, AID2223, AID489010, AID492950]; type: functional
# T8 sequence (P9WHJ3 whole entry): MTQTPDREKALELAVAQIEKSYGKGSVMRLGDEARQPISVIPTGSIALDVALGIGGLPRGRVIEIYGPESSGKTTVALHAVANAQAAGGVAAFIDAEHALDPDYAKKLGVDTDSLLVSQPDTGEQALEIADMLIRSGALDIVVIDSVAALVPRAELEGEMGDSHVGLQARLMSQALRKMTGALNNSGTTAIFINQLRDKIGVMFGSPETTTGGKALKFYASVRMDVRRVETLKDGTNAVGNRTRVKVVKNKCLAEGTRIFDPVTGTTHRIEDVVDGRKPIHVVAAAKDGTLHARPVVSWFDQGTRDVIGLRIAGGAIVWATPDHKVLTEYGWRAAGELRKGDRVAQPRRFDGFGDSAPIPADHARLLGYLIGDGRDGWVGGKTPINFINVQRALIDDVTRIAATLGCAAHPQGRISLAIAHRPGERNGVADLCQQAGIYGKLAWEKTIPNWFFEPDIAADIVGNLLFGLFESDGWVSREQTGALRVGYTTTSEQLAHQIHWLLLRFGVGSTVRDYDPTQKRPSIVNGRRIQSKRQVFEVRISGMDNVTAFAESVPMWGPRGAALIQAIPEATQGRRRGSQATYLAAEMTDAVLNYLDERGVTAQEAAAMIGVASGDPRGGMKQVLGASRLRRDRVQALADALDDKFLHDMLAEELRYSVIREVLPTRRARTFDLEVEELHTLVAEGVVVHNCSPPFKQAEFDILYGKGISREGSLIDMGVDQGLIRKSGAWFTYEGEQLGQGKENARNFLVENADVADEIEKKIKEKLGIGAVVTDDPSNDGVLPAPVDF
# [15] = molecular target: Dual specificity tyrosine-phosphorylation-regulated kinase 1A (Rattus norvegicus, UniProt Q63470); type: biochemical, Homo sapiens
# [16] = molecular target: Peroxisome proliferator-activated receptor gamma/Nuclear receptor coactivator 2 (Homo sapiens, UniProt P37231); type: functional;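 note: agonist potency for raising coactivator recruitment to the receptor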
# [17] = molecular target: Peroxisome proliferator-activated receptor gamma/Nuclear receptor coactivator 1 (Homo sapiens, UniProt P37231); type: functional;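 note: agonist potency as compounds enhance coactivator SRC-1 recruitment to PPARgamma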
# [18] = molecular target: Peroxisome proliferator-activated receptor gamma/Nuclear receptor coactivator 3 (Homo sapiens, UniProt P37231); type: functional;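 note: agonist potency for raising coactivator recruitment to the receptor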
# Chain of Eukaryotic translation initiation factor 4E (P63073 whole entry): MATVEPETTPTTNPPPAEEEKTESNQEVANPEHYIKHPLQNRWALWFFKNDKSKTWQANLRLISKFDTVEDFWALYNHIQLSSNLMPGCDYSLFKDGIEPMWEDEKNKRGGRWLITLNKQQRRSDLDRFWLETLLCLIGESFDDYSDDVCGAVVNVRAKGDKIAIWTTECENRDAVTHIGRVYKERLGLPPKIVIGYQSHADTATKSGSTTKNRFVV
# T4 sequence (Q92731 whole entry): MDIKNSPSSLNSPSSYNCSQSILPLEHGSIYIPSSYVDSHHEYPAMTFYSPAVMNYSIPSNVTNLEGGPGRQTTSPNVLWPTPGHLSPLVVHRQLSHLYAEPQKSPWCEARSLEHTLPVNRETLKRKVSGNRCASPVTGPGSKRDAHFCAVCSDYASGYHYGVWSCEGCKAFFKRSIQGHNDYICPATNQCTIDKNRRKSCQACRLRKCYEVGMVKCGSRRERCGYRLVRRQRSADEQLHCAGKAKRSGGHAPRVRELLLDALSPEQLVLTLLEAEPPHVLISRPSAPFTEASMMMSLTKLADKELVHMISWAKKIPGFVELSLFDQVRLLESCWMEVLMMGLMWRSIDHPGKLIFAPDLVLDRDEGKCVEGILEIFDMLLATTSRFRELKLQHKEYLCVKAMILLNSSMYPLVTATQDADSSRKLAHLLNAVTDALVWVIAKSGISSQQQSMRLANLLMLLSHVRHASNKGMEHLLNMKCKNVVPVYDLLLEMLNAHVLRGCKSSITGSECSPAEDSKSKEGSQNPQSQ
# Chain of DNA dC->dU-editing enzyme APOBEC-3A (P31941 whole entry): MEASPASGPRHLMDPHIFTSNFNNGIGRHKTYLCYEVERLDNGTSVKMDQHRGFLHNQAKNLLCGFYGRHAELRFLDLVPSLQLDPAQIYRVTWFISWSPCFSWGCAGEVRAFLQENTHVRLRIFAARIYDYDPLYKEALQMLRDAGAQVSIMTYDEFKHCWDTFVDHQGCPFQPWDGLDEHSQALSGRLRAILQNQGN
# Chain of DNA dC->dU-editing enzyme APOBEC-3G (Q9HC16 whole entry): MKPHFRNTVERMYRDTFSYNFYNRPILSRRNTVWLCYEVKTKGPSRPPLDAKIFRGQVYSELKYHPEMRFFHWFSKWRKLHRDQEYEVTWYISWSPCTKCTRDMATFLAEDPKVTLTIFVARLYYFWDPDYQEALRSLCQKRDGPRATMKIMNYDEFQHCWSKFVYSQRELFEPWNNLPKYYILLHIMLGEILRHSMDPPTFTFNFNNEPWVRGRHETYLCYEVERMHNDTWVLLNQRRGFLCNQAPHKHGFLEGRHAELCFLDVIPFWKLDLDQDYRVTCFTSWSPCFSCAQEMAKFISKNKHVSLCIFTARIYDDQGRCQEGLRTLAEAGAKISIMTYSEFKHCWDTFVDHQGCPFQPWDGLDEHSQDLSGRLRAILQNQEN
# Chain of Peroxisome proliferator-activated receptor gamma/Nuclear receptor coactivator 1 (P37231 whole entry): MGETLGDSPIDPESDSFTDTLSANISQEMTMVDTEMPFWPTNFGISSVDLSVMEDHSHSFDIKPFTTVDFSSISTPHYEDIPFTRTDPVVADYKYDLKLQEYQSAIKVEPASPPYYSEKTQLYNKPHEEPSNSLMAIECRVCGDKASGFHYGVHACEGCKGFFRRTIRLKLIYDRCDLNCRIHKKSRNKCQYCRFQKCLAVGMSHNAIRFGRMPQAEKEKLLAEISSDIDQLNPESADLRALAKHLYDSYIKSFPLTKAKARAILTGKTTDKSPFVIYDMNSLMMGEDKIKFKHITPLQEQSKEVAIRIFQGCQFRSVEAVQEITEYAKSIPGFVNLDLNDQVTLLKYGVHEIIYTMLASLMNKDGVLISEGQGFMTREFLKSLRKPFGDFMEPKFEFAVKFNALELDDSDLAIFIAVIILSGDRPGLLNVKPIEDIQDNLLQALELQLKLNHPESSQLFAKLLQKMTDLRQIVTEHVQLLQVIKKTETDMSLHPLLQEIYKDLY
# Chain of Peroxisome proliferator-activated receptor gamma/Nuclear receptor coactivator 1 (Q15788 whole entry, further chain): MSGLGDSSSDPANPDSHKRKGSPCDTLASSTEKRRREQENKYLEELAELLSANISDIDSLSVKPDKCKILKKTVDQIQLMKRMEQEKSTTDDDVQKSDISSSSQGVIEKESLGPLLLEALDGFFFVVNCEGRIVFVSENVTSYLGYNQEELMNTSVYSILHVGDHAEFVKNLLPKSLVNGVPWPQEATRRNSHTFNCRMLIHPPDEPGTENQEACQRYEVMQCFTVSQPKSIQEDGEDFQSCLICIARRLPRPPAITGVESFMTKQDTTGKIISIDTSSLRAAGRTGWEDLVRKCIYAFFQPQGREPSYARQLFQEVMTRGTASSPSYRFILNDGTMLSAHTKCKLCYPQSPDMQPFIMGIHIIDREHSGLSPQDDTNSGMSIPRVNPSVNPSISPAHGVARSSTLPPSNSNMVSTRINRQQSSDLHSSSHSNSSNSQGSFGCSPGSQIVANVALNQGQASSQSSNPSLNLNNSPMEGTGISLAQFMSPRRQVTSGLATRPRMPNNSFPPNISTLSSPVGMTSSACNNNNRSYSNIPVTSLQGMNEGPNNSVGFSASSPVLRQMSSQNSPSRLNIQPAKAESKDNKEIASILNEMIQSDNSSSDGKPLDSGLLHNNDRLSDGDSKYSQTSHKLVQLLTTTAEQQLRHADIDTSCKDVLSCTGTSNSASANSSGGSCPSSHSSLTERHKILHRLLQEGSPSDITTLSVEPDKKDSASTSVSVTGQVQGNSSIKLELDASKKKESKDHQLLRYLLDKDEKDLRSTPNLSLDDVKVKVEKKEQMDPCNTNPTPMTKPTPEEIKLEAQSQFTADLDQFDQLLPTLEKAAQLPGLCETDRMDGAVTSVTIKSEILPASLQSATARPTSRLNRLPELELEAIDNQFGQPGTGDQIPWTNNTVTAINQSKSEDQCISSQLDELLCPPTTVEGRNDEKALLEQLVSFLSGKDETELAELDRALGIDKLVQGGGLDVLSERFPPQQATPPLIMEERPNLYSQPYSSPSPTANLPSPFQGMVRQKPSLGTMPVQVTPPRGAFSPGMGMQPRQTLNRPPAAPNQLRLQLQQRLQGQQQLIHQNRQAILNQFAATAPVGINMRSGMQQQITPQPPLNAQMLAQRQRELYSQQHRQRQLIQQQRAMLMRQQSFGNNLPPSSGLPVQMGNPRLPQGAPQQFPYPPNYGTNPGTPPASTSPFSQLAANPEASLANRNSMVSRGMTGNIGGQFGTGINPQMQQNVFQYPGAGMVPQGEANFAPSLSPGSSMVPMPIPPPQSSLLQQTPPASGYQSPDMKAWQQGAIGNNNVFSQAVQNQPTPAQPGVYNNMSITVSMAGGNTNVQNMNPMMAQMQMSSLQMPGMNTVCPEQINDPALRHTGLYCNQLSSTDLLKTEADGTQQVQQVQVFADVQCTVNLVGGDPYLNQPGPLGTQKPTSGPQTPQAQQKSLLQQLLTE
# Chain of Nonstructural protein 1 (Q194T2 whole entry): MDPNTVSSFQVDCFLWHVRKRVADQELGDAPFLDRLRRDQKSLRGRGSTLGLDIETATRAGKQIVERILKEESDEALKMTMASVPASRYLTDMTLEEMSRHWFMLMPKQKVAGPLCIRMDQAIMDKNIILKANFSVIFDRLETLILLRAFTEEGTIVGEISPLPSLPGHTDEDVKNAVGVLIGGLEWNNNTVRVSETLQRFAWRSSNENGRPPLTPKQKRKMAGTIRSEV
# Chain of Trypsin (P00761 whole entry): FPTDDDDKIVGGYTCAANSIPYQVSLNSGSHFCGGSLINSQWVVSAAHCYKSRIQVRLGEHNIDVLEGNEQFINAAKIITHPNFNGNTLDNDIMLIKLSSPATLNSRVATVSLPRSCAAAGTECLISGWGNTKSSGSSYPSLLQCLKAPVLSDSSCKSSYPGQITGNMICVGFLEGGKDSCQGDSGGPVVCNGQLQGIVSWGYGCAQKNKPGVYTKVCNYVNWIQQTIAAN
smiles,measurement,setting,value
CCn1c(=O)c2c3c(sc2n2c(=S)[nH]nc12)CCC3,IC50,[1],> 100 µM (inactive)
same,IC50,[2],> 64 µM (inactive)
same,IC50,[3],4.78 µM (active)
same,IC50,[4],26.4 µM (active)
O=C(COC(=O)COc1ccccc1Cl)Nc1ccccc1OC(F)F,IC50,[5],> 50 µM (inactive)
CCOc1ccc(N(CC(=O)Nc2ccc3c(c2)OCCO3)S(=O)(=O)c2c(C)noc2C)cc1,IC50,[5],> 50 µM (inactive)
COc1ccc2oc(-c3ccccc3)c(C(=O)N3CCOCC3)c2c1,AC50,[6],4.55 µM (active)
CC(=O)Nc1ccc(OC(=O)CC2SC(=O)NC2=O)cc1 (stereo not given),IC50,[7],> 100 µM (inactive)
same,IC50,[8],8.53 µM (active)
same,IC50,[9],< 0.023 µM (not active)
COCc1cc(C2SCC(=O)Nc3c2c(O)nn3C(C)C)ccc1OC (stereo not given),IC50,[7],> 100 µM (inactive)
Cc1ccc(C2=NN(S(=O)(=O)c3ccccc3)C(c3ccccc3O)C2)cc1 (stereo not given),IC50,[5],> 50 µM (inactive)
same,AC50,[10],> 100 µM (inactive)
O=C1c2ccccc2-c2onc3ccc(N4CCCC4)c1c23,IC50,[2],50 µM (inactive)
same,IC50,[11],23.6 µM (active)
same,EC50,[12],> 260 µM (inactive)
same,AC50,[13],> 380 µM (inactive)
same,EC50,[14],0.606 µM (active)
same,AC50,[15],1.67 µM (active)
same,AC50,[10],15.1 µM (active)
CC(C)(C)c1cc(C(=S)N2CCN(CCO)CC2)cc(C(C)(C)C)c1O,EC50,[16],> 79.4 µM (not active)
same,EC50,[17],> 79.4 µM (not active)
same,EC50,[18],> 79.4 µM (not active)
same,IC50,[1],> 100 µM (inactive)
same,IC50,[3],13.4 µM (active)

# From ChEMBL document CHEMBL1201862, “PubChem BioAssay data set” (2004)
